Results taken from patent publication US10399940B2, “Substituted pyrrolidines and methods of use” (AbbVie S.à.r.l., priority 2016, dated 2019).
Where two headings read alike, the source gives them in different places. One block for each molecule: values may come before it.

Biological target: T1, F508delCFTR (Homo sapiens, UniProt P13569, DEL508-508)
T1 construct: expressed in transfected cells; host or cells: CFBE41o- (human lung derived epithelial cell line), doxycycline-inducible expression
Experiment: Cell Surface Expression-Horse Radish Peroxidase (CSE-HRP) assay
Assay type: cell-based
Details: CFBE41o-F508delCFTR-HRP cells; for Maximum % activity (with co-corrector): with co-corrector (2 μM); for Maximum % activity (with co-corrector) / Maximum % activity (without co-corrector): normalized to on-plate positive control, highest concentration 20 μM
Procedure, shortened: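 Surface F508delCFTR-HRP was read by luminol luminescence after 18–24 h compound exposure at 33 °C, without or with 2 μM co-corrector. Doses were eight 3-fold steps from 20 μM, in doxycycline-induced (0.5 μg/mL, 72 h) CFBE41o- cells. % activity was scaled to the on-plate 2 μM positive control minus DMSO; EC50 came from a variable-slope sigmoid fit.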

[1] = test compound without co-corrector, 18-24 hours at 33° C., read-out: EC50 (without co-corrector)
[2] = with co-corrector (2 μM of 3-[(2R,4R)-4-({[1-(2,2-difluoro-1,3-benzodioxol-5-yl)cyclopropyl]carbonyl}amino)-7-methoxy-3,4-dihydro-2H-chromen-2-yl]benzoic acid), read-out: EC50 (with co-corrector)

T1 sequence (P13569 with tags, fused parts or gaps DEL508-508): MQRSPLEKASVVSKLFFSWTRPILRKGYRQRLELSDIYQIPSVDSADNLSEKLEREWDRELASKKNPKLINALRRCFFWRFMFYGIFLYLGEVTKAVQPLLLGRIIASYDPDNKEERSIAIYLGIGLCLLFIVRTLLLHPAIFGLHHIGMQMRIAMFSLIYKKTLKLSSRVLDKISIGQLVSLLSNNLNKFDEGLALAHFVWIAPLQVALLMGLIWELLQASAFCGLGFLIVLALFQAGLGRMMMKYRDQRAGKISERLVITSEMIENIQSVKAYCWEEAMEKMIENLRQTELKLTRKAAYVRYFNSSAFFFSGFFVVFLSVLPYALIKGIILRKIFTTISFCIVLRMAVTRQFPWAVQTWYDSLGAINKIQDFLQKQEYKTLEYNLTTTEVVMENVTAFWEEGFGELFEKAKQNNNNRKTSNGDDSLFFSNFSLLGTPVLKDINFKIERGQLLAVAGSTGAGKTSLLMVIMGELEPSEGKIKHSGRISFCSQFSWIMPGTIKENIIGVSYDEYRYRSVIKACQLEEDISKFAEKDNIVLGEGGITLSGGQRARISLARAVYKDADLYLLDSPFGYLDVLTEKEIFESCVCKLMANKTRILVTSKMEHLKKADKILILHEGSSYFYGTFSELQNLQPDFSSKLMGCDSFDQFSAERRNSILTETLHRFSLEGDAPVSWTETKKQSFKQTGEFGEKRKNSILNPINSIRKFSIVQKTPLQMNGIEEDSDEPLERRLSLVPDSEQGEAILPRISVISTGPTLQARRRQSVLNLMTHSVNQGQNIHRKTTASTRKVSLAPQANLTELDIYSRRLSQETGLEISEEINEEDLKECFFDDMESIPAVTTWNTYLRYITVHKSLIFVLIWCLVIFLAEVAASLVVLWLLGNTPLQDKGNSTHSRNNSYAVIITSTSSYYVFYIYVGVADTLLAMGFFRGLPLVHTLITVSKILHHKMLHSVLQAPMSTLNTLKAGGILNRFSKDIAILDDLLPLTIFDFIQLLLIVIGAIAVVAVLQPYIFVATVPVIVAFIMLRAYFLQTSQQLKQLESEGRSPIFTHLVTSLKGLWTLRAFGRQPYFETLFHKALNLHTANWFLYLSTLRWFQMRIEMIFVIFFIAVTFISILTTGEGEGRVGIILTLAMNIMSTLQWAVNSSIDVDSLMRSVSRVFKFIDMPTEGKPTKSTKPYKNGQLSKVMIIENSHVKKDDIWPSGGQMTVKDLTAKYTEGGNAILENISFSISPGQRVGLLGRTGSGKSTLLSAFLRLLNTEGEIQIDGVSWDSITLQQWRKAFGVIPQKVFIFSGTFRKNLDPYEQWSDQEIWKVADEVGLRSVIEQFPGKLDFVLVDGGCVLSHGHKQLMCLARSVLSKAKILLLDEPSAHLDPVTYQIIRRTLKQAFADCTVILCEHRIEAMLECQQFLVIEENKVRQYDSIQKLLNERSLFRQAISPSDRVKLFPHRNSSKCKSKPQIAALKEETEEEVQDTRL

Structure (SMILES): COc1ncc(C(F)(F)F)cc1CO[C@H]1[C@H](C(C)(C)C)[C@@H](C(=O)O)N(C(=O)[C@@H]2CCCCO2)[C@H]1c1ccccc1-c1ccc(OC(F)(F)F)cc1 [Example 206, (2S,3R,4S,5S)-3-tert-butyl-4-{[2-methoxy-5-(trifluoromethyl)pyridin-3-yl]methoxy}-1-[(2S)-oxane-2-carbonyl]-5-[4′-(trifluoromethoxy) [1,1′-biphenyl]-2-yl]pyrrolidine-2-carboxylic acid]
EC50 [1]: 1000 to 10000 nM
EC50 [2]: 1000 to 10000 nM
Maximum % activity (with co-corrector): +++ (≥350)
Maximum % activity (without co-corrector): +++ (≥200)

Structure (SMILES): COc1ccc(C(C)(C)C)cc1CO[C@H]1[C@H](C(C)(C)C)[C@@H](C(=O)O)N(C(=O)[C@@H]2CCCCO2)[C@H]1c1cccc2ccccc12 [Example 211, (2S,3R,4S,5S)-3-tert-butyl-4-[(5-tert-butyl-2-methoxyphenyl)methoxy]-5-(naphthalen-1-yl)-1-[(2S)-oxane-2-carbonyl]pyrrolidine-2-carboxylic acid]
EC50 [1]: 1000 to 10000 nM
EC50 [2]: < 1000 nM
Maximum % activity (with co-corrector): +++ (≥350)
Maximum % activity (without co-corrector): +++ (≥200)

Structure (SMILES): COc1ncc(C(F)(F)F)cc1CO[C@H]1[C@H](C(C)(C)C)[C@@H](C(=O)O)N(C(=O)[C@@H]2CCCCO2)[C@H]1c1cccc2ccoc12 [Example 212, (2S,3R,4S,5S)-5-(1-benzofuran-7-yl)-3-tert-butyl-4-{[2-methoxy-5-(trifluoromethyl)pyridin-3-yl]methoxy}-1-[(2S)-oxane-2-carbonyl]pyrrolidine-2-carboxylic acid]
EC50 [1]: 1000 to 10000 nM
EC50 [2]: 1000 to 10000 nM
Maximum % activity (with co-corrector): +++ (≥350)
Maximum % activity (without co-corrector): ++ (≥100 and <200)

Structure (SMILES): COc1ncc(C(F)(F)F)cc1CO[C@H]1[C@H](C(C)(C)C)[C@@H](C(=O)O)N(C(=O)[C@@H]2CCCCO2)[C@H]1c1ccccc1CC(C)C [Example 213, (2S,3R,4S,5S)-3-tert-butyl-4-{[2-methoxy-5-(trifluoromethyl)pyridin-3-yl]methoxy}-5-[2-(2-methylpropyl)phenyl]-1-[(2S)-oxane-2-carbonyl]pyrrolidine-2-carboxylic acid]
EC50 [1]: 1000 to 10000 nM
EC50 [2]: < 1000 nM
Maximum % activity (with co-corrector): +++ (≥350)
Maximum % activity (without co-corrector): +++ (≥200)

Structure (SMILES): COc1cccc(S(=O)(=O)N2[C@H](C(=O)O)[C@@H](C(C)(C)C)[C@H](OCc3cc(C4CCC4)cnc3OC)[C@@H]2c2ccccc2C2CC2)n1 [Example 214, (2S,3R,4S,5S)-3-tert-butyl-4-[(5-cyclobutyl-2-methoxypyridin-3-yl)methoxy]-5-(2-cyclopropylphenyl)-1-(6-methoxypyridine-2-sulfonyl)pyrrolidine-2-carboxylic acid]
EC50 [1]: 1000 to 10000 nM
EC50 [2]: 1000 to 10000 nM
Maximum % activity (with co-corrector): ++ (≥150 and <350)
Maximum % activity (without co-corrector): + (<100)

Structure (SMILES): COc1ccc(C2(C)CCC2)cc1CO[C@H]1[C@H](C(C)(C)C)[C@@H](C(=O)O)N(C(=O)[C@@H]2CCCCO2)[C@H]1c1ccccc1C [Example 215, (2S,3R,4S,5S)-3-tert-butyl-4-{[2-methoxy-5-(1-methylcyclobutyl)phenyl]methoxy}-5-(2-methylphenyl)-1-[(2S)-oxane-2-carbonyl]pyrrolidine-2-carboxylic acid]
EC50 [1]: < 1000 nM
EC50 [2]: < 1000 nM
Maximum % activity (with co-corrector): +++ (≥350)
Maximum % activity (without co-corrector): +++ (≥200)

Structure (SMILES): COc1ncc(C(F)(F)F)cc1CO[C@H]1[C@H](C(C)(C)C)[C@@H](C(=O)O)N(C(=O)[C@@H]2CCCCO2)[C@H]1c1cccc2c1OCC2 [Example 216, (2S,3R,4S,5S)-3-tert-butyl-5-(2,3-dihydro-1-benzofuran-7-yl)-4-{[2-methoxy-5-(trifluoromethyl)pyridin-3-yl]methoxy}-1-[(2S)-oxane-2-carbonyl]pyrrolidine-2-carboxylic acid]
EC50 [1]: 1000 to 10000 nM
EC50 [2]: < 1000 nM
Maximum % activity (with co-corrector): +++ (≥350)
Maximum % activity (without co-corrector): + (<100)

Structure (SMILES): COc1ncc(C2CC2)cc1CO[C@H]1[C@H](C(C)(C)C)[C@@H](C(=O)O)N(C(=O)[C@@H]2CCCCO2)[C@H]1c1ccccc1C [Example 217, (2S,3R,4S,5S)-3-tert-butyl-4-[(5-cyclopropyl-2-methoxypyridin-3-yl)methoxy]-5-(2-methylphenyl)-1-[(2S)-oxane-2-carbonyl]pyrrolidine-2-carboxylic acid]
EC50 [1]: 1000 to 10000 nM
EC50 [2]: < 1000 nM
Maximum % activity (with co-corrector): +++ (≥350)
Maximum % activity (without co-corrector): +++ (≥200)

More lines, now with the values ahead:

EC50 [1]: 1000 to 10000 nM
EC50 [2]: 1000 to 10000 nM
Maximum % activity (with co-corrector): +++ (≥350)
Maximum % activity (without co-corrector): +++ (≥200)
Structure (SMILES): COc1ncc(C(F)(F)F)cc1CO[C@H]1[C@H](C(C)(C)C)[C@@H](C(=O)O)N(C(=O)[C@@H]2CCCCO2)[C@H]1c1ccccc1-c1cccc(OC(F)(F)F)c1 [Example 201, (2S,3R,4S,5S)-3-tert-butyl-4-{[2-methoxy-5-(trifluoromethyl)pyridin-3-yl]methoxy}-1-[(2S)-oxane-2-carbonyl]-5-[3′-(trifluoromethoxy) [1,1′-biphenyl]-2-yl]pyrrolidine-2-carboxylic acid]

EC50 [1]: 1000 to 10000 nM
EC50 [2]: 1000 to 10000 nM
Maximum % activity (with co-corrector): +++ (≥350)
Maximum % activity (without co-corrector): +++ (≥200)
Structure (SMILES): COc1ncc(C(F)(F)F)cc1CO[C@H]1[C@H](C(C)(C)C)[C@@H](C(=O)O)N(C(=O)[C@@H]2CCCCO2)[C@H]1c1ccccc1-c1ccc(Cl)cc1 [Example 202, (2S,3R,4S,5S)-3-tert-butyl-5-(4′-chloro[1,1′-biphenyl]-2-yl)-4-{[2-methoxy-5-(trifluoromethyl)pyridin-3-yl]methoxy}-1-[(2S)-oxane-2-carbonyl]pyrrolidine-2-carboxylic acid]

EC50 [1]: 1000 to 10000 nM
EC50 [2]: 1000 to 10000 nM
Maximum % activity (with co-corrector): +++ (≥350)
Maximum % activity (without co-corrector): +++ (≥200)
Structure (SMILES): COc1ncc(C(F)(F)F)cc1CO[C@H]1[C@H](C(C)(C)C)[C@@H](C(=O)O)N(C(=O)[C@@H]2CCCCO2)[C@H]1c1ccccc1-c1ccc2c(c1)OCO2 [Example 203, (2S,3R,4S,5S)-5-[2-(2H-1,3-benzodioxol-5-yl)phenyl]-3-tert-butyl-4-{[2-methoxy-5-(trifluoromethyl)pyridin-3-yl]methoxy}-1-[(2S)-oxane-2-carbonyl]pyrrolidine-2-carboxylic acid]

EC50 [1]: 1000 to 10000 nM
EC50 [2]: < 1000 nM
Maximum % activity (with co-corrector): +++ (≥350)
Maximum % activity (without co-corrector): +++ (≥200)
Structure (SMILES): COc1ncc(C(F)(F)F)cc1CO[C@H]1[C@H](C(C)(C)C)[C@@H](C(=O)O)N(C(=O)[C@@H]2CCCCO2)[C@H]1c1ccccc1-c1ccccc1F [Example 204, (2S,3R,4S,5S)-3-tert-butyl-5-(2′-fluoro[1,1′-biphenyl]-2-yl)-4-{[2-methoxy-5-(trifluoromethyl)pyridin-3-yl]methoxy}-1-[(2S)-oxane-2-carbonyl]pyrrolidine-2-carboxylic acid]

EC50 [1]: 1000 to 10000 nM
EC50 [2]: 1000 to 10000 nM
Maximum % activity (with co-corrector): +++ (≥350)
Maximum % activity (without co-corrector): ++ (≥100 and <200)
Structure (SMILES): COc1ccc(-c2ccccc2[C@H]2[C@@H](OCc3cc(C(F)(F)F)cnc3OC)[C@H](C(C)(C)C)[C@@H](C(=O)O)N2C(=O)[C@@H]2CCCCO2)cn1 [Example 205, (2S,3R,4S,5S)-3-tert-butyl-5-[2-(6-methoxypyridin-3-yl)phenyl]-4-{[2-methoxy-5-(trifluoromethyl)pyridin-3-yl]methoxy}-1-[(2S)-oxane-2-carbonyl]pyrrolidine-2-carboxylic acid]

EC50 [1]: 1000 to 10000 nM
EC50 [2]: 1000 to 10000 nM
Maximum % activity (with co-corrector): +++ (≥350)
Maximum % activity (without co-corrector): ++ (≥100 and <200)
Structure (SMILES): COc1ncc(C(F)(F)F)cc1CO[C@H]1[C@H](C(C)(C)C)[C@@H](C(=O)O)N(C(=O)[C@@H]2CCCCO2)[C@H]1c1ccccc1-c1ccc(C#N)cc1 [Example 207, (2S,3R,4S,5S)-3-tert-butyl-5-(4′-cyano[1,1′-biphenyl]-2-yl)-4-{[2-methoxy-5-(trifluoromethyl)pyridin-3-yl]methoxy}-1-[(2S)-oxane-2-carbonyl]pyrrolidine-2-carboxylic acid]

EC50 [1]: 1000 to 10000 nM
EC50 [2]: 1000 to 10000 nM
Maximum % activity (with co-corrector): +++ (≥350)
Maximum % activity (without co-corrector): +++ (≥200)
Structure (SMILES): COc1ncc(C(F)(F)F)cc1CO[C@H]1[C@H](C(C)(C)C)[C@@H](C(=O)O)N(C(=O)[C@@H]2CCCCO2)[C@H]1c1ccccc1-c1ccc(C(F)(F)F)nc1 [Example 208, (2S,3R,4S,5S)-3-tert-butyl-4-{[2-methoxy-5-(trifluoromethyl)pyridin-3-yl]methoxy}-1-[(2S)-oxane-2-carbonyl]-5-{2-[6-(trifluoromethyl)pyridin-3-yl]phenyl}pyrrolidine-2-carboxylic acid]

EC50 [1]: 1000 to 10000 nM
EC50 [2]: 1000 to 10000 nM
Maximum % activity (with co-corrector): +++ (≥350)
Maximum % activity (without co-corrector): ++ (≥100 and <200)
Structure (SMILES): CCOc1cncc(-c2ccccc2[C@H]2[C@@H](OCc3cc(C(F)(F)F)cnc3OC)[C@H](C(C)(C)C)[C@@H](C(=O)O)N2C(=O)[C@@H]2CCCCO2)c1 [Example 209, (2S,3R,4S,5S)-3-tert-butyl-5-[2-(5-ethoxypyridin-3-yl)phenyl]-4-{[2-methoxy-5-(trifluoromethyl)pyridin-3-yl]methoxy}-1-[(2S)-oxane-2-carbonyl]pyrrolidine-2-carboxylic acid]
